Data reported in patent US11840686B2, “Modulation of prekallikrein (PKK) expression” (Ionis Pharmaceuticals, Inc., priority 2013, dated 2023).

Tests used:
[1] = Hematological parameters in cynomolgus monkeys (Example 8); conditions: cynomolgus monkey, 40 mg/kg sc, day 87 or day 88
human PKK mRNA [2] = assay: Antisense inhibition of human PKK mRNA in HepaRG cells, 1,000 nM, MOE/deoxy/cEt oligonucleotides (Example 3); format: cell-based; conditions: HepaRG cells, 1,000 nM, electroporation, 24 hours
Procedure, shortened: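 Readout is percent PKK mRNA reduction against untreated controls, by real-time PCR (RTS3454) adjusted for total RNA via RIBOGREEN. Oligonucleotides, phosphorothioate gapmers of 16 nucleosides with cEt, MOE and deoxy sugars, were delivered at 1,000 nM by electroporation to 20,000 HepaRG cells/well for roughly 24 h.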

human PKK mRNA [3] = assay: Human PKK mRNA in liver of human KLKB1 transgenic mice (Example 7); format: in vivo; conditions: transgenic mice
Procedure, shortened: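 Transgenic mice carrying a 37,390 bp human KLKB1 fragment dosed subcutaneously twice weekly for 3 weeks at 2.5, 5.0, 10 or 20 mg/kg/week; PBS controls. Liver harvested 48 h after the last dose. Human PKK mRNA measured by real-time PCR and expressed as % inhibition versus PBS.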

PKK mRNA = PKK mRNA in cynomolgus monkey liver (Example 8); format: in vivo; conditions: primates, Example 8
Procedure, shortened: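 Cynomolgus monkeys were dosed with human antisense oligonucleotides cross-reactive with the rhesus sequence. Liver RNA taken on day 87 or 88, 48 h after the last dose, was assayed by real-time PCR (primer probe set RTS3455) and normalized to cyclophilin. Values are percent PKK mRNA inhibition versus PBS control.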

PKK protein [4] = assay: PKK protein in cynomolgus monkey plasma by ELISA (Example 8); format: in vivo; conditions: 40 mg/kg sc
Protocol: Approximately 0.9 mL of blood was collected each time from all available animals at pre-dose, day 17, day 31, day 45, day 59, and day 73, and placed in tubes containing 3.2% sodium citrate. The tubes were centrifuged (3000 rpm for 10 min at room temperature) to obtain plasma. PKK protein levels were measured in the plasma by ELISA. The results are presented in Table 52, expressed as percentage inhibition compared to the PBS control levels.

[5] = Tolerability / clinical observation of cynomolgus monkeys (Example 8); format: in vivo, cynomolgus monkey; conditions: primates, Example 8
Protocol: Cynomolgus monkeys were treated with ISIS antisense oligonucleotides selected from studies described above. Antisense oligonucleotide efficacy and tolerability were evaluated. The human antisense oligonucleotides tested are cross-reactive with the rhesus genomic sequence (GENBANK Accession No. NW_001118167.1 truncated from nucleotides 2358000 to 2391000 and designated herein as SEQ ID NO: 18).
During the study period, the monkeys were observed a minimum of once daily for signs of illness or distress. Any animal experiencing more than momentary or slight pain or distress due to the treatment, injury or illness was promptly reported to the responsible veterinarian and the Study Director. Any animal in poor health or in a possible moribund condition was identified for further monitoring and possible euthanasia. […] The protocols described in the Example were approved by the Institutional Animal Care and Use Committee (IACUC).

[6] = Liver function markers in cynomolgus monkeys (Example 8); conditions: cynomolgus monkey plasma, 40 mg/kg sc
[7] = Urine protein/creatinine ratio in cynomolgus monkeys (Example 8); conditions: cynomolgus monkey, 40 mg/kg sc
PKK protein [8] = assay: Plasma PKK protein levels in human KLKB1 transgenic mice (Example 7); format: in vivo; conditions: transgenic mice
Procedure, shortened: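 Human KLKB1 transgenic mice dosed subcutaneously twice weekly for 3 weeks with antisense oligonucleotides at 2.5, 5.0, 10 or 20 mg/kg/week. Plasma collected 48 hours after the final dose; PKK protein expressed as percent inhibition relative to PBS-treated controls.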

[9] = Kidney function: plasma BUN and creatinine in cynomolgus monkeys (Example 8); conditions: 40 mg/kg s.c.
Protocol: Prior to the study, the monkeys were kept in quarantine for a 30-day period, during which the animals were observed daily for general health. The monkeys were 2-4 years old and weighed between 2 and 4 kg. Ten groups of four randomly assigned male cynomolgus monkeys each were injected subcutaneously with ISIS oligonucleotide or PBS. PBS solution or ISIS oligonucleotides at a dose of 40 mg/kg were administered initially with a loading regimen consisting of four doses on the first week of the study (days 1, 3, 5, and 7), followed by a maintenance regimen consisting of once weekly administration starting on Day 14 (weeks 2 to 13). Subcutaneous injections were performed in clock-wise rotations at 4 sites on the back; one site per dose. The injection sites were delineated by tattoo, while sedated using ketamine, and were separated by a minimum of 3 cm.
To evaluate the effect of ISIS oligonucleotides on kidney function, the monkeys were fasted overnight. Approximately, 1.5 mL of blood samples were collected from all the study groups. Blood was collected in tubes without anticoagulant for serum separation. The tubes were kept at room temperature for a minimum of 90 min and then centrifuged at 3,000 rpm for 10 min. Levels of BUN and creatinine were measured using a Toshiba 120FR NEO chemistry analyzer (Toshiba Co., Japan).

[10] = C-reactive protein and complement C3 levels in cynomolgus monkeys (Example 8); conditions: cynomolgus monkey plasma, 40 mg/kg sc
[11] = 2.5 mg/kg/week s.c. twice a week for 3 weeks
[12] = 5.0 mg/kg/week s.c. twice a week for 3 weeks
[13] = 10 mg/kg/week s.c. twice a week for 3 weeks
[14] = 20 mg/kg/week s.c. twice a week for 3 weeks

**Q.** For “mCes Ges Aks Tds Ads Tds mCds Ads Tds Gds Ads Tds Tds mCks mCks mCe [ISIS 548048]”, which HCT [1] is on record?
**A.** The HCT was 44%.

**Q.** What about the Hemoglobin [1] of the same substance?
**A.** The Hemoglobin was 13.4 g/dL.

**Q.** What about the Platelets [1] of the same substance?
**A.** The Platelets was 393000 µL⁻¹.

**Q.** What about the RBC [1] of the same substance?
**A.** Its RBC is 5.9e+06 µL⁻¹.

**Q.** What about the WBC [1] of the same substance?
**A.** The WBC was 11000 µL⁻¹.

**Q.** What about the mRNA inhibition (human PKK mRNA [2]) of the same substance?
**A.** Its mRNA inhibition is 84%.

**Q.** And the “human PKK mRNA inhibition” value (human PKK mRNA [3]; [11])?
**A.** Its value is 7%.

**Q.** What about the “human PKK mRNA inhibition” value (human PKK mRNA [3]; [12]) of the same substance?
**A.** The value was 77%.

**Q.** And the “human PKK mRNA inhibition” value (human PKK mRNA [3]; [13])?
**A.** The value was 72%.

**Q.** What about the “human PKK mRNA inhibition” value (human PKK mRNA [3]; [14]) of the same substance?
**A.** Its value is 80%.

**Q.** And the “inhibiting PKK mRNA and protein expression in primates” value (PKK mRNA)?
**A.** Its value is “effective for inhibiting PKK mRNA and protein expression”.

**Q.** And the “PKK protein level reduction (%) in plasma relative to control levels” value (PKK protein [4]; Day 17)?
**A.** The value was 90%.

**Q.** What about the “PKK protein level reduction (%) in plasma relative to control levels” value (PKK protein [4]; Day 31) of the same substance?
**A.** The value was 93%.

**Q.** And the “PKK protein level reduction (%) in plasma relative to control levels” value (PKK protein [4]; Day 45)?
**A.** The value was 95%.

**Q.** What about the “PKK protein level reduction (%) in plasma relative to control levels” value (PKK protein [4]; Day 59) of the same substance?
**A.** The value was 95%.

**Q.** And the “PKK protein level reduction (%) in plasma relative to control levels” value (PKK protein [4]; Day 73)?
**A.** Its value is 95%.

**Q.** And the “tolerability in primates” value [5]?
**A.** The value was “tolerable in primates”.

**Q.** And the ALT [6]?
**A.** The ALT was 47 IU/L.

**Q.** And the AST [6]?
**A.** Its AST is 44 IU/L.

**Q.** What about the Albumin [6] of the same substance?
**A.** Its Albumin is 4.2 g/dL.

**Q.** What about the Urine protein/creatinine ratio [7] of the same substance?
**A.** The Urine protein/creatinine ratio was 0.03.

**Q.** What about the “human PKK protein inhibition” value (PKK protein [8]; [11]) of the same substance?
**A.** Its value is 23%.

**Q.** And the “human PKK protein inhibition” value (PKK protein [8]; [12])?
**A.** Its value is 70%.

**Q.** And the “human PKK protein inhibition” value (PKK protein [8]; [13])?
**A.** Its value is 89%.

**Q.** And the “human PKK protein inhibition” value (PKK protein [8]; [14])?
**A.** The value was 98%.

**Q.** And the “Plasma BUN” value [9]?
**A.** Its value is 21.9 mg/dL.

**Q.** What about the “Plasma Creatinine” value [9] of the same substance?
**A.** The value was 0.9 mg/dL.

**Q.** What about the “C3 (% of baseline)” value [10] of the same substance?
**A.** Its value is 69 % of baseline.

**Q.** What about the CRP [10] of the same substance?
**A.** The CRP was 0.2 mg/dL.
